One may read the inhibition as the change of the read-out against control, counted positive when it falls. Read a low inhibition as a weak effect.

In the assay the test system is Mycobacterium tuberculosis. Description: Antimycobacterial activity against Mycobacterium tuberculosis H37Rv ATCC 27294 at 6.25 uM by microplate alamar blue assay. Format: functional. A general note: Alamar Blue is a resazurin reagent that responds to reducing activity.

`CC(=O)O[C@H]1C[C@H]2[C@]3(C)CC[C@H]4C(C)(C)CCC[C@]4(C)[C@H]3C[C@@H](O)[C@]2(C)[C@H]2OC(=O)C=C12` gave an inhibition at 6.25 µM of 40%.

The compound `CC(=O)O[C@H]1C[C@H]2[C@]3(C)CC[C@H]4C(C)(C)CCC[C@]4(C)[C@H]3C[C@@H](O)[C@]2(C)C2=C1COC2=O` [SESTERSTATIN 7] showed an inhibition at 6.25 µM of 63%.

Take `CC(=O)O[C@H]1CC[C@]2(C)[C@H]3C[C@@H](O)[C@]4(C)C5=C(CC[C@H]4[C@]3(C)CC[C@H]2C1(C)C)COC5=O`: the inhibition at 6.25 µM worked out at 13%.

As for `CC1(C)CCC[C@]2(C)[C@H]3C[C@@H](O)[C@]4(C)[C@H]5COC(=O)C5=CC[C@H]4[C@]3(C)CC[C@@H]12`, at 6.25 µM the inhibition was 16%.
